How the values were obtained:
CHO A3 cells = assay: Light and fluorescent microscopy of CHO A3 cells; type: cell-based, Chinese hamster; conditions: 10 μM, 1 h, one wash with PBS, CHO cells stably expressing the A3 AR
Procedure: (§1) After one wash with PBS, the cells were imaged at 100× magnification on a Zeiss AxioVision D1 Imager, and both light and fluorescent pictures were obtained.
(§2) CHO or CHO A3 cells were seeded on a cover disk in a 6 well dish (250,000 cells per well). After the cells were incubated for 24 hrs at 37°C, the medium was removed and replaced with DMEM containing 10 μM of the 15 or 17. The cells were incubated for 1 h at 37°C and washed one time with PBS. The images were taken with at 100× manification using a Zeiss AxioVision D1 Imager equipped with AxioVision 4.5 software.

CHO cells = assay: Light and fluorescent microscopy of CHO cells not expressing the A3 AR; type: cell-based, Chinese hamster; conditions: 10 μM, 1 h, one wash with PBS
Procedure: as §1, §2

A1 AR [1] = molecular target: T1, A1 AR (Homo sapiens, UniProt P30542); assay: Radioligand binding at A1 AR ([3H]CCPA, CHO cell membranes); conditions: for A1 binding, class symbol: inhibition of radioligand binding at 10 μM; for Binding at the A1 AR, in words / Difference in affinity between the human A1 and A3 ARs: radioligand binding
T1 sequence (P30542 1-326): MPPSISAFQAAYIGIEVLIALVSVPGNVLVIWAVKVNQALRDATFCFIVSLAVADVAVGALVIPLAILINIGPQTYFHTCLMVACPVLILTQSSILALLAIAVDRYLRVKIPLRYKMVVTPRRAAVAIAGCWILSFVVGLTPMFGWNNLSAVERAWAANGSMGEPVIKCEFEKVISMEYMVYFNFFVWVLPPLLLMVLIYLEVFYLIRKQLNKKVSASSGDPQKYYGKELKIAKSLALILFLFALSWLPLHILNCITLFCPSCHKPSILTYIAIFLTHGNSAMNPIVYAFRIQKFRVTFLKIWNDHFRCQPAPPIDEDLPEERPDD
Procedure: (§3) CHO (Chinese hamster ovary) cells stably expressing the recombinant human ARs were cultured in Dulbecco's modified Eagle medium (DMEM) and F12 (1:1) supplemented with 10% fetal bovine serum, 100 units/mL penicillin, 100 μg/mL streptomycin, and 2 μmol/mL glutamine. After harvesting, cells were homogenized and suspended. Cells were then centrifuged at 500 g for 10 min, and the pellet was resuspended in 50 mM Tris-HCl buffer (pH 7.5) containing 10 mM MgCl2. The suspension was homogenized and was then recentrifuged at 20 000 g for 20 min at 4°C. The resultant pellets were resuspended in Tris buffer, incubated with adenosine deaminase for 30 min at 37°C, and the suspension was stored at -80°C until the binding experiments. The protein concentration was measured using the BCA Protein Assay Kit from Pierce.
(§4) Radioligand binding assays were performed for A1 and A2A ARs, following the procedure described previously. Each tube in the binding assay contained 100 μL of membrane suspension (20 μg of protein), 50 μL of agonist radioligand, and 50 μL of increasing concentrations of the test ligands in Tris-HCl buffer (50 mM, pH 7.5) containing 10 mM MgCl2. The concentration of the dendrimer-ligand complexes are measured by the concentration of the dendrimer, not the ligand. Therefore, all Ki values are measured as Ki app values. Nonspecific binding was determined using a final concentration of 10 μM 5'-N-ethylcarboxamidoadenosine diluted with the buffer. The mixtures were incubated at 25°C for 60 min. Binding reactions were terminated by filtration through Whatman GF/B filters under a reduced pressure using a MT-24 cell harvester (Brandell, Gaithersburg, MD). Filters were washed three times with 5 mL of 50 mM ice-cold Tris-HCl buffer (pH 7.5). The radioactive agonists [^3H]2-chloro-N^6-cyclopentyladenosine and [^3H]2-(4-(2-carboxyethyl)phenylethylamino)-5'-N-ethylcarboxamido-adenosine were used for the A1 and A2A assays, respectively. All of the filters were washed 3 times with Tris-HCl, pH 7.5. Filters for A1 and A2A AR binding were placed in scintillation vials containing 5 mL of Hydrofluor scintillation buffer and counted using a Perkin Elmer Liquid Scintillation Analyzer. Filters for A3 AR binding were counted using a Packard Cobra II γ-counter. The Ki values were determined using GraphPad Prism for all assays.

A3 AR [2] = molecular target: T2, A3 AR (Homo sapiens, UniProt P0DMS8); assay: cAMP assay (inhibition of forskolin-stimulated adenylyl cyclase) in CHO cells expressing A3 AR; type: cell-based; conditions: for A3 (adenylyl cyclase), class word: relative to total inhibition by ADAC; for EC50: cAMP inhibition, mean ± SEM, n = 3
T2 construct: expressed in transfected cells; host or cells: CHO cells, stably transfected
T2 sequence (P0DMS8 1-318): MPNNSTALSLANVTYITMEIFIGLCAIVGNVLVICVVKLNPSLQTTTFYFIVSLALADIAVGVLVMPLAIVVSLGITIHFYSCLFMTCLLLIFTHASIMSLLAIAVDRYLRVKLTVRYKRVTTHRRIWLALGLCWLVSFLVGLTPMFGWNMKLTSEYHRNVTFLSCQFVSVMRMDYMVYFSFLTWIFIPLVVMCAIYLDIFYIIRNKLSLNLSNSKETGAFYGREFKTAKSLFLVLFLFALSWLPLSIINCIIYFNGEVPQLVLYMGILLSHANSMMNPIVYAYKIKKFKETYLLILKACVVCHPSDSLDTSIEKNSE
Procedure: (§5) CHO cells expressing either the A1 or A3 AR were seeded in 24 well plates and incubated at 37°C overnight. The following day the medium was removed and replaced with DMEM containing 50 mM HEPES, 10 μM rolipram, 3 U/ml adenosine deaminase and increasing concentrations of the compounds. After a 30 min incubation at 37°C, 10 μM of forskolin was added to stimulate cAMP levels, and the cells were incubated at 37°C for an additional 15 min. The medium was removed, and the cells were lysed with 200 μl of 0.1 M HCl. 100 μl of the HCl solution was used in the Sigma Direct cAMP Enzyme Immunoassay following the instructions provided with the kit.

A3 AR [3] = molecular target: T2, A3 AR; assay: Radioligand binding at A3 AR ([125I]AB-MECA, CHO cell membranes)
Procedure: as §3
as §4, with “The radioactive agonists [^3H]2-chloro-N^6-cyclopentyladenosine and [^3H]2-(4-(2-carboxyethyl)phenylethylamino)-5'-N-ethylcarboxamido-adenosine were used for the A1 and A2A assays, respectively.” left out

A1 AR [4] = molecular target: T1, A1 AR; assay: cAMP assay (inhibition of forskolin-stimulated adenylyl cyclase) in CHO cells expressing A1 AR; type: cell-based; conditions: for A1 (adenylyl cyclase), class word: at 10 μM, relative to total inhibition by ADAC; for EC50: cAMP inhibition, mean ± SEM, n = 3
Procedure: as §5

A2A AR = molecular target: T3, A2A AR (Homo sapiens, UniProt P29274); assay: Radioligand binding at A2A AR ([3H]CGS21680, HEK cells)
T3 construct: expressed in transfected cells; host or cells: CHO
Procedure: as §3
as §4, with “The radioactive agonists [^3H]2-chloro-N^6-cyclopentyladenosine and [^3H]2-(4-(2-carboxyethyl)phenylethylamino)-5'-N-ethylcarboxamido-adenosine were used for the A1 and A2A assays, respectively.” left out

A1 AR [5] = molecular target: T1, A1 AR; assay: [35S]GTPγS binding assay in CHO A1 membranes; type: biochemical; conditions: for EC50: mean ± SEM, n = 3
Procedure: as §3
[^35S]GTPγS binding was measured in 200 μl of buffer containing 50 mM Tris-HCl (pH 7.4), 1 mM EDTA, 1 mM MgCl2, 10 μM GDP, 1 mM dithiothreitol, 100 mM NaCl, 3 units/ml adenosine deaminase, 0.2 nM [^35S]GTPγS, 0.004% CHAPS, 0.5% bovine serum albumin and increasing concentrations of the ligands. Samples were started by addition of the membrane suspension (5–10 μg protein/tube) to the test tubes and incubated at 25°C for 30 min. The assay was terminated by rapid filtration through Whatman GF/B filters, pre-soaked in 50 mM Tris-HCl (pH 7.4) containing 5 mM MgCl2 and 0.02% CHAPS. Non-specific binding of [^35S]GTPγS was measured in the presence of 10 μM unlabelled GTPγS. After the filters were washed, they were placed in scintillation vials containing 5 mL of Hydrofluor scintillation buffer and counted using a Perkin Elmer Liquid Scintillation Analyzer. The EC50 values were determined using GraphPad Prism for all assays.

[6] = tested on: ten-min bilateral cerebrovascular occlusion; conditions: cited from earlier work
[7] = inhibition of radioligand binding at 10 μM

T3 sequence (P29274 whole entry): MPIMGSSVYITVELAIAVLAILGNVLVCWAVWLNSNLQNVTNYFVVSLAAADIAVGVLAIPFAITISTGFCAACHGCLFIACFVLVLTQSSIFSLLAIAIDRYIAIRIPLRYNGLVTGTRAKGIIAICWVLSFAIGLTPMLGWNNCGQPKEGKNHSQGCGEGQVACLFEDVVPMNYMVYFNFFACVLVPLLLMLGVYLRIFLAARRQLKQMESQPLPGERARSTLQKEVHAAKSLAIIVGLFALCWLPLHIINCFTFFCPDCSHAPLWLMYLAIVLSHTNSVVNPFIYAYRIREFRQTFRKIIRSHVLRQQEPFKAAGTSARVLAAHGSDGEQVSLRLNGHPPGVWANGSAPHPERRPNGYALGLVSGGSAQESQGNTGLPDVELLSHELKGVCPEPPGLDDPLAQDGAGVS

Compound | A1 binding, class symbol (A1 AR [1]) | Binding at the A1 AR, in words (A1 AR [1]) | A3 (adenylyl cyclase), class word (A3 AR [2]; at 10 μM) | Inhibition of cAMP production at the A1 AR, in words (A1 AR [4]) | A1 (adenylyl cyclase), class word (A1 AR [4]) | EC50 (A1 AR [5]) [nM] | Ki (A1 AR [1]) [nM] | Difference in affinity between the human A1 and A3 ARs (A1 AR [1]) [fold] | EC50 (A3 AR [2]) [nM] | Ki (A3 AR [3]) [nM] | EC50 (A1 AR [4]) [nM] | Ki (A2A AR) [nM] | further results
G2.5 PAMAM – AF488 [Compound 15] | NB^b (NB, No binding. Inhibition of radioligand binding < 10% at 10 μM) | no binding | inactive^c | no binding or activity | inactive^c |  |  |  |  |  |  |  | Fluorescent binding to cells (CHO A3 cells): Neither type of CHO cells were bound; Fluorescent binding to cells (CHO cells): Neither type of CHO cells were bound; A3 binding, class symbol (A3 AR [3]; [7]): NB^b (NB, No binding. Inhibition of radioligand binding < 10% at 10 μM); A2A binding, class symbol (A2A AR; [7]): NB^b (NB, No binding. Inhibition of radioligand binding < 10% at 10 μM)
NCCNC(=O)Cc1ccc(NC(=O)Cc2ccc(Nc3ncnc4c3ncn4[C@@H]3O[C@H](CO)[C@@H](O)[C@H]3O)cc2)cc1 [Compound 1, N^6-[4-[[[4-[[[(2-aminoethyl)amino]carbonyl]methyl]anilino]-carbonyl]methyl]phenyl]adenosine, reference compound] |  |  |  |  |  | 94 ± 26 | 10.4 ± 3.8 | < 5 | 100 ± 50 | 12.2 ± 4.1 | 400 ± 80 | 370 ± 100 | Protection against neuronal damage and mortality ([6]; acute or chronic administration prior to occlusion): protects against neuronal damage and mortality; Neuronal protection post-ischemia ([6]; given up to twelve hours post-ischemia): provides neuronal protection
O=C(O)CCc1ccc(NC(=S)NCCNC(=O)Cc2ccc(NC(=O)Cc3ccc(Nc4ncnc5c4ncn5[C@@H]4O[C@H](CO)[C@@H](O)[C@H]4O)cc3)cc2)cc1 [Compound 4, 3-(4-(3-(2-(2-(4-(2-(4-(9-((2R,3R,4S,5R)-3,4-Dihydroxy-5-(hydroxymethyl)tetrahydrofuran-2-yl)-9H-purin-6-ylamino)phenyl)acetamido)-phenyl)acetamido)ethyl)thioureido)phenyl)pro-panoic acid] |  |  |  |  |  | 1300 ± 400 | 30 ± 9 | < 5 | 140 ± 70 | 74 ± 20 | 350 ± 20 | 800 ± 360 | 
G3 PAMAM – 23 Ac – AF488 [Compound 11] | NB^b (NB, No binding. Inhibition of radioligand binding < 10% at 10 μM) | no binding | inactive^c | unable to significantly inhibit cAMP production | inactive^c |  |  |  |  |  |  |  | Inhibition of cAMP production at the A3 AR, in words (A3 AR [2]; at 10 μM): unable to significantly inhibit cAMP production
NCCNCCNC(=O)Cc1ccc(NC(=O)Cc2ccc(Nc3ncnc4c3ncn4[C@@H]3O[C@H](CO)[C@@H](O)[C@H]3O)cc2)cc1 [Compound 7, N-(2-(2-Aminoethylamino)ethyl)-2-(4-(2-(4-(9-((2R,3R,4S,5R)-3,4-dihydroxy-5-(hydroxymethyl)-tetrahydrofuran-2-yl)-9H-purin-6-ylamino)-phenyl)acetamido)phenyl)acetamide] |  |  |  |  |  | 63 ± 14 | 43 ± 5 | < 5 | 36 ± 13 | 9.5 ± 2 | 89 ± 17 | 300 ± 20 | Fold more potent than 4 in activation of GTPγS binding via the A1 AR (A1 AR [5]): 20 fold; Fold more potent than either ADAC or 4 in adenylyl cyclase assay (A3 AR [2]; A3 AR): 3 – 7 fold; Fold more potent than either ADAC or 4 in adenylyl cyclase assay (A1 AR [4]; A1 AR): 3 – 7 fold

Reference: publication PMC2582240, “Enhanced A3 adenosine receptor selectivity of multivalent nucleoside-dendrimer conjugates” (Journal of Nanobiotechnology, 2008)
